From doi:10.1101/2025.07.08.663703, “Recruitment of Mre11 to recombination sites during meiosis” (bioRxiv, 2025) come the findings set out here.

Ends that are not written are not given here.

For test [1], the system named is Mer2. The experiment in a line: Co-expression NiNTA pulldown of MBP-Mre11-C49 (prey) with HisSUMO-Mer2 (bait). The following applies: co-expression in E. coli, anti-MBP elution/input signal normalized to wild type, at least seven independent samples. Format: binding, S. cerevisiae. The source says: The vector for expression of ^MBPMre11-C49 and ^HisSUMOMer2 (pCCB1040) was based on a pET-Duet1 vector with the sequence coding for ^MBPMre11-C49 cloned within the first position (SacI site) and the sequence coding for ^HisSUMOMer2 cloned at the second position (XhoI site). The EQEK mutations and LLK mutations were introduced by PCR amplification of pCCB1040 with primers cb1561 and cb1562, and pp84 and pp85, followed by phosphorylation and self-ligation to yield plasmids pry59 and pry61, respectively.
Wild-type and mutant MBP-tagged Mre11-C49 and HisSUMO-tagged Mer2 were co-expressed in 50 mL of E. coli BL21 cultures and purified by affinity chromatography on Ni-NTA resin following a procedure similar to that described above. Briefly, cells were lysed by sonication and centrifuged at maximum speed for 30 mins at 4°C on a table-top centrifuge. A small fraction of the supernatant was collected as ‘Input’ and the remainder was incubated with 120 μL Ni-NTA resin, pre-equilibrated with wash buffer (25 mM HEPES pH 7.5, 20 mM imidazole, 0.1 mM DTT, 0.1 mM PMSF, 10% glycerol), for 1 hour on a rotating wheel at 4°C. The resin was washed twice with 2 ml in batch and five times with 2 ml on column before eluting with 250 μL of 500 mM imidazole in wash buffer. […]

The test system of test [2] is Mer2. Briefly: In vitro colocalization of Mre11 with Mer2 condensates. The class given is binding, S. cerevisiae. As to the method: Proteins were diluted to a 10× stock of their appropriate working concentrations in their respective storage buffers. […] Unless specified otherwise, all reactions contained 400 nM ^Alexa488Mre11 or 100 nM ^eGFPMRX. A typical 20 μL binding reaction contained 2 μL protein of 10× stock of indicated concentration, 10 μL of 2× reaction buffer, and 150 ng of supercoiled pUC19 (5.7 nM). Typical reactions were assembled at 30°C for 30 mins with gentle mixing every 5 mins, unless mentioned otherwise. 5 μL was dropped onto a microscope slide and covered with a coverslip. All images were captured on a Zeiss Axio Observer with a 100×/1.4 NA oil immersion objective except for images provided in Figure 4G which were captured on Leica Stellaris DMI 8 confocal microscope with a 63x/1.2 NA water immersion objective. Images were analyzed with ImageJ using a custom-made script. In brief, 129.24 × 129.24-μm (2048 × 2048-pixel) images were thresholded to mean intensity of the background plus three times the standard deviation of the background. Masked foci were counted and the intensity inside the focus mask was integrated. Data points represent averages of at least 8–10 images per sample. Data were analyzed using Graphpad Prism 10.4.0.

In test [3] the test system is MMS-induced Mre11myc foci. Briefly: Immunofluorescence of MMS-induced Mre11myc foci in vegetative yeast, 1,6-hexanediol treatment. Format: cell-based, Saccharomyces cerevisiae SK1. The following applies: 5% 1,6-hexanediol, 4–5 minutes, spheroplasts, vegetative cells. How it is done:
Following standard protocols, strains were patched on YPG plates, mated and streaked on YPD plates, and selected diploid colonies grown in liquid YPD at 30°C, 250 rpm, overnight. For meiotic synchronization, diploid cultures grown overnight in YPD were transferred to YPA (1% yeast extract, 2% peptone, 1% potassium acetate) at OD600 0.2 and grown for 12–14 hours at 30°C, 250 rpm. […]
Slides were blocked with 90% FBS, 1× PBS for 1 hour at room temperature in a humid chamber and then incubated with primary antibody (mouse mAb anti-myc, 1:200 (2276S, Cell Signaling Technology), rabbit anti-phospho H2A-S129, 1:200 (ab15083, abcam)) diluted in 3% BSA, 1× PBS in a humid chamber for 2 hours at 37°C or overnight at 4°C. Slides were washed three times with 1× PBS in a Coplin jar, were incubated with secondary antibody (goat anti-mouse IgG Alexa Fluor™ Plus 488, 1:200 (A32723, Invitrogen), donkey anti-rabbit IgG Alexa Fluor™ 546, 1:200 (A10040, Invitrogen) diluted in 3% BSA, 1× PBS in a humid chamber at 37°C for 1 hour. Slides were washed in the dark three times for 5 mins with 1× PBS, mounted with Vectashield containing DAPI (Vector Labs). Images were captured on a Zeiss Axio Observer with a 100×/1.4 NA oil immersion objective and were analyzed in ImageJ.

In test [4] the test system is mre11-ΔC49 and mre11-ΔIDR yeast strains. The experiment in a line: MMS and CPT sensitivity assay (spotting of serial dilutions). Format: cell-based, Saccharomyces cerevisiae SK1. The following applies: ten-fold serial dilutions on YPD plates, two days at 30°C; for resistance of mre11-ΔC49 mutant: mre11-ΔC49 strain; for resistance of mre11-ΔIDR mutants: mre11-ΔIDR strain. How it is done: Following standard protocols, strains were patched on YPG plates, mated and streaked on YPD plates, and selected diploid colonies grown in liquid YPD at 30°C, 250 rpm, overnight. For meiotic synchronization, diploid cultures grown overnight in YPD were transferred to YPA (1% yeast extract, 2% peptone, 1% potassium acetate) at OD600 0.2 and grown for 12–14 hours at 30°C, 250 rpm. Once the cultures reached OD600 between 1.2–1.6, cells were washed once with prewarmed sterile water and immediately transferred to sporulation medium supplemented with amino acids (320 μL amino acid complementation media for 100 mL of sporulation media (SPM)) and were kept shaking at 30°C, 250 rpm during the entire meiotic time-course. For MMS and CPT (Sigma) sensitivity assays, serial dilutions of overnight cultures were spotted on freshly prepared YPD-MMS or YPD-CPT plates containing indicated percentage of MMS or CPT, respectively. Plates were grown for two days at 30°C. For immunofluorescence of vegetatively growing cells, overnight cultures were refreshed by diluting to OD600 0.2 and grown for 3–4 hours to reach OD600 1.2–1.4 before subjecting to MMS or MMS followed by 5% 1,6-hexanediol treatment. For 5% 1,6-hexanediol treatment, cells were first converted to spheroplasts and then treated with 5% 1,6-hexanediol for 4–5 minutes. Spheroplasts were then immediately washed, lysed, and fixed using protocol described below.

The next test concerns the target T1, Smt3 (Saccharomyces cerevisiae, UniProt Q12306).
T1 construct: 6xHis (C); made in house; host or cells: E. coli BL21 (DE3)pLysS
Briefly: NMR chemical shift perturbation of U-[13C,15N] Smt3 by SIM3 peptides. The class given is binding, yeast (S. cerevisiae). The following applies: [1H,15N] HSQC, 1.2 molar equivalents of peptide, 0.3 mM U-[13C,15N] Smt3, 20 mM sodium phosphate, 20 mM NaCl, pH 6.5, 10% D2O, 298 K, 800 MHz. How it is done:
For the production of the doubly labeled U-[^13C, ^15N] […] The purification protocol remained the same as described above.
The samples contained 0.3–0.6 mM of U-[^13C,^15N] […] All NMR spectra were acquired at 298 K on a Bruker Avance III HD 800 MHz spectrometer, equipped with a TCI cryoprobe. The NMR data were processed in TopSpin 3.6 (Bruker) or NMRPipe[70] and analyzed in CCPNMR[71]. Assignments of Smt3 backbone amide resonances were taken from literature[72] and verified by 3D HNCACB, HN(CO)CACB, and ^15N-edited NOESY-HSQC spectra. […] The assigned ^1H, ^13C and ^15N chemical shifts of the free and bound Smt3 have been deposited in the Biological Magnetic Resonance Bank (http://www.bmrb.wisc.edu/) under the accession number 53209.
The NMR binding experiments were performed by an incremental addition of wild-type or mutant SIM peptides (1.2 mM stocks in the working buffer) to 0.3 mM samples of U-[^13C,^15N] Smt3, with the spectral changes monitored in [^1H,^15N] HSQC spectra acquired at each increment. The average chemical shift perturbations (Δδavg) were calculated as Δδavg = (ΔδX^2/50 + ΔδH^2/2)^0.5, where ΔδX and ΔδH are the chemical shift changes of the backbone amide nitrogens or methyl carbons (ΔδX) and protons (ΔδH) of Smt3 residues upon addition of 1.2 molar equivalents of SIM peptides, and n = 50 or 9 for the backbone amide and methyl groups, respectively.

T1 sequence (Q12306 whole entry): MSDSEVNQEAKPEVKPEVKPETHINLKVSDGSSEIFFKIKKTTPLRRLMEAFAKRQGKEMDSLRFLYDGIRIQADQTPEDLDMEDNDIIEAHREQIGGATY

With “Mre11-C49: Mre11 C-terminal residues (644–692) (SYGLLNGRKTKTKTRPAASTKTASRRGKGRASRTPKTDILGSLLAKKRK; also: MBP fusion, end not given here)”, the “interaction of Mre11-C49 and Mer2 in pulldown (anti-MBP immunoblot)” value with Mer2 [1] is “directly binds Mer2”. In addition, the “localization of Mre11-C49 around Mer2 condensates” value in the test with Mer2 [2] (800 nM mScarletMre11-C49 and 200 nM eGFPMer2, 30 min) is “forms a halo-like structure around Mer2 condensates”. Moreover, the “independent condensate formation of Mre11-C49” value in the test with Mer2 [2] (800 nM mScarletMre11-C49 without eGFPMer2) was “does not form condensates independently”.

With `OCCCCCCO` [1,6-hexanediol], the “effect on MMS-induced Mre11 foci” value in test [3] was “readily dissolved MMS-induced foci”.

In the case of `CC[C@@]1(O)C(=O)OCc2c1cc1n(c2=O)Cc2cc3ccccc3nc2-1` [camptothecin], in test [4], the “resistance of mre11-ΔC49 mutant” value is on record as “resistant” and the “resistance of mre11-ΔIDR mutants” value is “as resistant to MMS or CPT as wild-type cells”.

For the molecule `COS(C)(=O)=O` [MMS, methylmethanesulfonate], in test [4], the “resistance of mre11-ΔC49 mutant” value is given as “resistant” and the “resistance of mre11-ΔIDR mutants” value is “as resistant to MMS or CPT as wild-type cells”.

Turning to “Mre11-LLK: Mre11-C49 with L683, L686, and K690 mutated to alanine (SYGLLNGRKTKTKTRPAASTKTASRRGKGRASRTPKTDIAGSALAKARK; also: MBP fusion, end not given here)”, the “interaction of Mre11-C49 and Mer2 in pulldown (anti-MBP immunoblot)” value in the test with Mer2 [1] is recorded as “strongly decreased the interaction between the two partners”.

With ENDIIMVSTDE [wild-type SIM3 peptide], on Smt3, the “backbone amide chemical shift perturbation of Smt3” value was “induced strong backbone amide chemical shift to Smt3 residues I35, F36, F37, K38, I39 and R46”.
